Values quoted from earlier work as cited in EP3501609A1 (Zentiva K.S., priority 2017, dated 2019).

C=CC(=O)N1CCC[C@@H](n2nc(-c3ccc(Oc4ccccc4)cc3)c3c(N)ncnc32)C1 [ibrutinib form A]
solubility (pH 1.2): poorly soluble | solubility in water (pH range of 4.5-8): virtually insoluble
